The record followed here is US10065990B2, “Cyclic peptide compound, and preparation method, pharmaceutical composition and use thereof” (HANGZHOU GUANYU BIO-MEDICAL CO., LTD, priority 2013, dated 2018).

Read-outs that look alike come from different tables or passages of the source. Where only a bound is given, the exact number is not on record here.

The target in one experiment is T1, HDAC8 (Homo sapiens, UniProt Q9BY41).
T1 sequence (Q9BY41 1-377): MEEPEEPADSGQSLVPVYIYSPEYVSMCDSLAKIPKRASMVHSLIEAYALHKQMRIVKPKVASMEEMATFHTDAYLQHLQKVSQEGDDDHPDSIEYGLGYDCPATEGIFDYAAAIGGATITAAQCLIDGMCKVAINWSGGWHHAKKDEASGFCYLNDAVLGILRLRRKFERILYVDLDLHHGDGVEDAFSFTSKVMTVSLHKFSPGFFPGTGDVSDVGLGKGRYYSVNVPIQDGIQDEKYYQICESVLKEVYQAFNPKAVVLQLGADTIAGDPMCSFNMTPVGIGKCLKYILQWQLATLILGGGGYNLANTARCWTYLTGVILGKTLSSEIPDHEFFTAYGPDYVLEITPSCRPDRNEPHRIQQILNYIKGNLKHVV
As to the kind of experiment: HDAC biochemical activity measurement (fluorescent substrate deacetylation). Particulars: 37° C. 30 minutes.

In a further experiment the target is HDAC1 (Homo sapiens, UniProt Q13547). The experiment is described as above.
The test system of experiment [1] is Hela (human cervical cancer cells). In words: MTT cancer cell growth inhibition. The class given is cell-based. The following applies: Homo sapiens, HeLa, 72 h, MTT. The method in brief: (§1)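 Cells grown in DMEM or RPMI 1640 with 10% FBS were seeded at 1500/well and left overnight at 37° C., 5% CO2. Compounds at final 10^−5 to 10^−10 M were added in triplicate for 72 h. MTT was then added for 4 h, formazan dissolved in DMSO, and absorbance read at 570 nm to derive GI50.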

Experiment [2] has as its system KBM5-T315I (human chronic myelogenous leukemia). In words: MTT cancer cell growth inhibition. The class given is cell-based. Particulars: Homo sapiens, 72 h, MTT, 72 hours incubation, KBM5-T315I cells; read-out: GI50 KBM5-T315I. The method in brief: as §1
For experiment [3], the system named is HT1080 (human fibrosarcoma cells). In words: MTT cancer cell growth inhibition. It counts as cell-based. The following applies: Homo sapiens, HT-1080, 72 h, MTT. In short, it runs like this: as §1
Experiment [4] relates to KBM-5 (human chronic myelogenous leukemia). In words: MTT cancer cell growth inhibition. The class given is cell-based. The following applies: Homo sapiens, KBM5, 72 h, MTT, 72 hours incubation, KBM-5 cells; read-out: GI50 KBM-5. The method in brief: as §1
Experiment [5] deals with N-87 (human gastric cancer cells). As to the kind of experiment: MTT cancer cell growth inhibition. It counts as cell-based. Particulars: Homo sapiens, 72 h, MTT, 72 hours incubation, N-87 cells; read-out: GI50 N-87. In short, it runs like this: as §1
Experiment [6] concerns SGC-7901 (human gastric cancer cells). As to the kind of experiment: MTT cancer cell growth inhibition. The class given is cell-based. The following applies: Homo sapiens, SGC-7901, 72 h, MTT, 72 hours incubation, SGC-7901 cells; read-out: GI50 SGC-7901. The method in brief: as §1
Experiment [7] concerns Huh-7 (human hepatoma cells). As to the kind of experiment: MTT cancer cell growth inhibition. It counts as cell-based. The following applies: Homo sapiens, Huh-7, 72 h, MTT, 72 hours incubation, Huh-7 cells; read-out: GI50 Huh-7. The method in brief:
as §1

Experiment [8] concerns MDA-MB-231 (breast cancer cells). In words: MTT cancer cell growth inhibition. The class given is cell-based. Particulars: Homo sapiens, MDA-MB-231, 72 h, read-out: GI50 MDA-MB-231, MTT, 72 hours incubation, MDA-MB-231 cells. In short, it runs like this:
as §1

Experiment [9] has as its system BGC-823 (human gastric cancer cells). As to the kind of experiment: MTT cancer cell growth inhibition. The class given is cell-based. The following applies: Homo sapiens, BGC-823, 72 h, MTT. In short, it runs like this:
as §1

Another experiment concerns the target T2, HDAC7 (Homo sapiens, UniProt Q8WUI4).
T2 sequence (Q8WUI4 1-952): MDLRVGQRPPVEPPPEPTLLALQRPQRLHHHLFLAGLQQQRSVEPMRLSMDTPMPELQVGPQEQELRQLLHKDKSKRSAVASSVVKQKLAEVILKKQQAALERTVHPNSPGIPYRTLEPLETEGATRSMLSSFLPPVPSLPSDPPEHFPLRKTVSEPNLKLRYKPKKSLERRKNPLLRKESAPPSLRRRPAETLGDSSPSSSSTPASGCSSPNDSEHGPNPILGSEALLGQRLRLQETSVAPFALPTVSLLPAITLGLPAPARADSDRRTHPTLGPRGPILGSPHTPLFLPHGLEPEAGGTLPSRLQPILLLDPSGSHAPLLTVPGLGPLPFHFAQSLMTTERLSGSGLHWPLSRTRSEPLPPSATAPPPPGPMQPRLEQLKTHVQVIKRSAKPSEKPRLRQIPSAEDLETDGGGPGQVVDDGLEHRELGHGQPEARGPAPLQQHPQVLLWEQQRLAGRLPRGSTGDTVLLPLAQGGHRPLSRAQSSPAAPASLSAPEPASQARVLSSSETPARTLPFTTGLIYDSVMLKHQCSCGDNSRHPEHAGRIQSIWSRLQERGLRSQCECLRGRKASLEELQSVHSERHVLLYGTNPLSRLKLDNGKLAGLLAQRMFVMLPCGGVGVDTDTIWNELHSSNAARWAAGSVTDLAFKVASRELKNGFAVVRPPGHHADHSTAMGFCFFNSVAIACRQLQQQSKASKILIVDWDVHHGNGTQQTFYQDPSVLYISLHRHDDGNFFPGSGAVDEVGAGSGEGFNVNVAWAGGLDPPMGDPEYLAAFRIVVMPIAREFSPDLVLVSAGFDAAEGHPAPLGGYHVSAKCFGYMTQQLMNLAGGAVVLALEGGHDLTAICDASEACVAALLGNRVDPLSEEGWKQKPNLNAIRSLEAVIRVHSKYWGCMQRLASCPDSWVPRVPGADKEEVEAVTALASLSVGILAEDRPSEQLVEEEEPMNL
As to the kind of experiment: HDAC biochemical activity measurement (fluorescent substrate deacetylation). Particulars: HDAC7; 37° C. 30 minutes.

The target in a further experiment is HDAC3 (Homo sapiens, UniProt O15379). The description is as above.
Where [10] appears, read: HDAC1, 37° C. 30 minutes, read-out: IC50 HDAC1.
Where [11] appears, read: Table 3, column C, read-out: IC50 HDAC1, C (six-membered ring with substituents).
Where [12] appears, read: 72 hours incubation, read-out: GI50 Hela.
Where [13] appears, read: 72 hours incubation, read-out: GI50 HT1.
[14] abbreviates: 72 hours incubation, read-out: GI50 BG.
Where [15] appears, read: read-out: IC50 HDAC3, HDAC3, 37° C. 30 minutes.
Setting [16] is: Table 2, read-out: IC50 HDAC1, a (compounds of the present invention).
Where [17] appears, read: 72 hours, present invention, read-out: GI50 Hela, a.
Setting [18] is: 72 hours, present invention, read-out: GI50 HT1080, a.
[19] abbreviates: 72 hours, present invention, read-out: GI50 BGC823, a.
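Throughout, for IC50 HDAC1, C (six-membered ring with substituents): fluorogenic acetyl-lysine substrate (20 µM) deacetylated by HDAC1, then developer releases fluorophore read at 360 nm excitation and 460 nm emission, inhibitor incubated 30 min at 37 °C.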
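Throughout, for IC50 HDAC1, D (non-substituent): fluorogenic acetyl-lysine substrate (20 µM) deacetylated by HDAC1, then developer releases fluorophore read at 360 nm excitation and 460 nm emission, inhibitor incubated 30 min at 37 °C.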
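Throughout, for IC50 HDAC1, a (compounds of the present invention): fluorogenic acetyl-lysine substrate (20 µM) deacetylated by HDAC1, then developer releases fluorophore read at 360 nm excitation and 460 nm emission, inhibitor incubated 30 min at 37 °C.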
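Throughout, for IC50 HDAC1: fluorogenic acetyl-lysine substrate (20 µM) deacetylated by HDAC1, then developer releases fluorophore read at 360 nm excitation and 460 nm emission, inhibitor incubated 30 min at 37 °C.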
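Throughout, for IC50 HDAC7: fluorogenic deacetylation assay using acetyl-lysine substrate at 20 µM, enzyme and compound incubated 30 min at 37 °C, then developer added, fluorescence read at 360/460 nm.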

Sequence of HDAC3 (O15379 whole entry, species assumed): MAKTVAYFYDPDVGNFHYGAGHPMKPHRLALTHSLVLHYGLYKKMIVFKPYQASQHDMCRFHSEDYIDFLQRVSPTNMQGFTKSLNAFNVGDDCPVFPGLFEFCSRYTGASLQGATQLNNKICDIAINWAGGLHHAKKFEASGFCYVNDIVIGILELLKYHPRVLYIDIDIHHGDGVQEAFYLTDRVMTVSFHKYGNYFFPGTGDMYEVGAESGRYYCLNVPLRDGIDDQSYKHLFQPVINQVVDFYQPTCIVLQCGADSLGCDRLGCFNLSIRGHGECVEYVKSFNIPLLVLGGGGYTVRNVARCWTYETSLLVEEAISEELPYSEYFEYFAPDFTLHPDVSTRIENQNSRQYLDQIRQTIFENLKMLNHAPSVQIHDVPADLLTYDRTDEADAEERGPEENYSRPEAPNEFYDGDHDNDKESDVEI
Sequence of HDAC3 (Q9Y618 395-489 partner limits assumed, species assumed): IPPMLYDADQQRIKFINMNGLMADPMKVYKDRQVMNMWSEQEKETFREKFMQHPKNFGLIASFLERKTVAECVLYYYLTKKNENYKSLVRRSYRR
Sequence of HDAC1 (Q13547 whole entry, species assumed): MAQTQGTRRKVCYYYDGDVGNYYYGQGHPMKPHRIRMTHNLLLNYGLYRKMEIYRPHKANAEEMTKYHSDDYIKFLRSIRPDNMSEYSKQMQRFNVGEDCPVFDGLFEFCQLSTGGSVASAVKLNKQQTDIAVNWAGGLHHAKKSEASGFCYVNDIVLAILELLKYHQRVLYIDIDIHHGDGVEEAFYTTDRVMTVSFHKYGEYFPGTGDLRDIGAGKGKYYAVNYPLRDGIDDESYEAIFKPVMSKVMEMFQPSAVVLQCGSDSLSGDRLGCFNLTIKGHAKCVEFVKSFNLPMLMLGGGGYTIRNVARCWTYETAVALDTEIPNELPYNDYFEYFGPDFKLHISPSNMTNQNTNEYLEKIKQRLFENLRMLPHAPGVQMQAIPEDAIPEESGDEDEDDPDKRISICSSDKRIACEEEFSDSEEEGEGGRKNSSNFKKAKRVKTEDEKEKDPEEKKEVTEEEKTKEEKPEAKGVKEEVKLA
Experimental for HDAC1: The chemical activity of the compound is determined according to the degree of deacetylation inhibition of the HDAC enzyme. This experiment measured the degree of deacetylation related to tumor proliferation and metastasis of HDAC1, HDAC2, HDAC3, HDAC8, HDAC11 five subtypes HDAC enzymes. After the substrate containing an acetylated lysine side chain and HDAC enzyme are labeled with a fluorescent label, the fluorescent substrate is de acetyl. The fluorescent labeled substrate is cleaved by the enzyme, and the fluorescent substance is released, which generates 460 nm emission light under the excitation of 360 nm light.
HDAC substrate was diluted with reaction buffer to 200M (reaction concentration of 20M), the HDAC enzyme was diluted to the appropriate concentration, then added different concentrations of the test compounds and acted at 37° C. 30 minutes, and then added the same volume of 2-times concentration substrate developing solution (developer), incubated at room temperature for 15 minutes.

Turning to `C/C=C1\NC(=O)c2cc(F)cc(n2)CNC(=O)C[C@@H](/C=C/CCSC(=O)CCCCCCC)OC(=O)[C@H](CC)NC1=O` [Compound 55], the half-inhibitory concentration (IC50) stood at 43 nM against HDAC8, 13 nM on HDAC1 (setting [10]), 13 nM on HDAC1 (setting [11]) and 35 nM at HDAC3 (setting [15]). In addition, the GI50 in [1] (setting [12]) stood at 80 nM; in experiment [2], 73 nM; in experiment [3] (setting [13]) it was 80 nM; in experiment [4], 89 nM; in experiment [5], 55 nM; in experiment [6], 59 nM. Moreover, the values for the GI50 in experiment [7], in experiment [8] and in experiment [9] (setting [14]) were 29 nM, 29 nM and 50 nM, respectively. Also, the “IC50 HDAC7” value at HDAC7 is recorded as “no activity”.
In the case of `CCCCCCCC(=O)SCC/C=C/[C@@H]1CC(=O)NCc2cccc(n2)C(=O)NCC(=O)N[C@@H](C(C)C)C(=O)O1` [Compound 246], the IC50 was 132 nM against HDAC8, 90 nM on HDAC1 (setting [10]), less than 100 nM on HDAC1 (setting [16]) and 87 nM at HDAC3 (setting [15]). For the same compound, the GI50 in experiment [1] (Hela cells, 72 hours incubation, read-out: GI50 Hela) worked out at 10 nM; in experiment [1] (setting [17]) it was 13 nM; in experiment [2], 33 nM; in experiment [3] (HT1080 cells, 72 hours incubation, read-out: GI50 HT1), 10 nM; in experiment [3] (setting [18]) it was 17 nM; in experiment [4], 56 nM. The GI50 in experiment [5] was 41 nM; in [6], 32 nM; in [7], 21 nM; in experiment [8], 47 nM; in experiment [9] (BGC-823 cells, 72 hours incubation, read-out: GI50 BG) it was 1020 nM; in experiment [9] (setting [19]), 1020 nM. Further, on HDAC7, the “IC50 HDAC7” value is listed as “no activity”.
In the case of `C/C=C1\NC(=O)c2cccc(n2)CNC(=O)C[C@@H](/C=C/CCSC(=O)CCCCCCC)OC(=O)[C@H](CC)NC1=O` [Compound 9], the half-inhibitory concentration (IC50) against HDAC8 was 49 nM; on HDAC1 (setting [10]), 45 nM; on HDAC1 (setting [16]), less than 50 nM; on HDAC1 (Table 3, read-out: IC50 HDAC1, D (non-substituent)), 45 nM; on HDAC3 (setting [15]), 34 nM. In addition, the GI50 in experiment [1] (setting [12]) is 50 nM; in experiment [1] (setting [17]), 50 nM; in experiment [2], 26 nM; in experiment [3] (setting [13]), 40 nM; in experiment [3] (setting [18]), 40 nM; in experiment [4] it was 44 nM. The GI50 is 35 nM in [5]; 31 nM in [6]; 53 nM in [7]; 97 nM in experiment [8]; 7 nM in experiment [9] (setting [19]). The “IC50 HDAC7” value at HDAC7 is “no activity”.
Turning to `C/C=C1\NC(=O)c2cc(F)cc(n2)CNC(=O)C[C@@H](/C=C/CCSC(=O)CCC)OC(=O)[C@H](C(C)C)NC1=O` [Compound 43], the IC50 against HDAC8 was 43 nM; at HDAC1 (setting [10]) it was 27 nM; on HDAC1 (setting [11]), 27 nM; at HDAC3 (setting [15]) it was 46 nM. In addition, the GI50 in experiment [1] (setting [12]) was 80 nM; in [2], 54 nM; in experiment [3] (setting [13]), 70 nM; in experiment [4] it was 81 nM; in [5] it was 38 nM; in experiment [6], 52 nM. Moreover, the concentration for 50% growth inhibition (GI50) in experiment [7] was determined as 36 nM; in experiment [8] it was 36 nM; in [9] (setting [14]), 30 nM. Also, on HDAC7, the “IC50 HDAC7” value is reported as “no activity”.
For `C/C=C1\NC(=O)c2cc(F)cc(n2)CNC(=O)C[C@@H](/C=C/CCSC(C)=O)OC(=O)[C@H](CCCCNC(=O)OCC2c3ccccc3-c3ccccc32)NC1=O` [Compound 76], the half-inhibitory concentration (IC50) against HDAC8 was found to be 28 nM; at HDAC1 (setting [10]), 51 nM; at HDAC1 (setting [11]), 51 nM; at HDAC3 (setting [15]), 42 nM. Further, the GI50 was 90 nM in experiment [1] (setting [12]); 34 nM in experiment [2]; 70 nM in [3] (setting [13]); 94 nM in experiment [4]; 32 nM in experiment [5]; 51 nM in [6]. Moreover, the GI50 stood at 26 nM in experiment [7], 26 nM in [8] and 30 nM in [9] (setting [14]). The “IC50 HDAC7” value against HDAC7 is on record as “no activity”.
Regarding `C/C=C1\NC(=O)c2nc(ccc2F)CNC(=O)C[C@@H](/C=C/CCSC(=O)CCCCCCC)OC(=O)[C@H](CC)NC1=O` [Example 54], the IC50 against HDAC8 turned out to be 34 nM; at HDAC1 (setting [10]), 74 nM; on HDAC3 it was 34 nM. Moreover, the GI50 in experiment [1] (setting [12]) stood at 90 nM; in [2], 63 nM; in experiment [3] (setting [13]) it was 50 nM; in experiment [4], 99 nM; in [5] it was 49 nM; in experiment [6] it was 64 nM. Moreover, the GI50 was found to be 34 nM in experiment [7], 34 nM in experiment [8] and 40 nM in experiment [9] (setting [14]). The “IC50 HDAC7” value at HDAC7 was “no activity”.
For `C/C=C1\NC(=O)c2nc(ccc2F)CNC(=O)C[C@@H](/C=C/CCSC(C)=O)OC(=O)[C@H](C)NC1=O` [Example 63], the half-inhibitory concentration (IC50) came to 29 nM at HDAC8, 41 nM on HDAC1 (setting [10]) and 39 nM against HDAC3. The GI50 in experiment [1] (setting [12]) is 90 nM; in experiment [2] it was 57 nM; in experiment [3] (setting [13]), 90 nM; in [4] it was 93 nM; in [5], 59 nM; in experiment [6] it was 51 nM. For the same compound, the GI50 was 49 nM in [7], 49 nM in experiment [8] and 50 nM in experiment [9] (setting [14]). In addition, the “IC50 HDAC7” value against HDAC7 is recorded as “no activity”.
